Measured values as given in ChEMBL document CHEMBL3988442, “University of Dundee, Small-Polar-MMV Screening Library” (2021).

Target: ClpP1P2 (Mycobacterium tuberculosis (strain ATCC 25618 / H37Rv), UniProt P9WPC3+P9WPC5)
Experiment: in vitro assay to detect presence of AMC directly proportional to the activity of ClpP1P2. GHDDI collaboration.
Format: functional

Chain of ClpP1P2 (P9WPC5 whole entry): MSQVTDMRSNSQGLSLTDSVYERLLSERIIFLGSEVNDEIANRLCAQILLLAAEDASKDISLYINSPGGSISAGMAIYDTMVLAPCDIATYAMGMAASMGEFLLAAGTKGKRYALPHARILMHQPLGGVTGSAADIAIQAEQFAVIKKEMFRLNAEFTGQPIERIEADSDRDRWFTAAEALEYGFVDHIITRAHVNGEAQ
Chain of ClpP1P2 (P9WPC3 whole entry): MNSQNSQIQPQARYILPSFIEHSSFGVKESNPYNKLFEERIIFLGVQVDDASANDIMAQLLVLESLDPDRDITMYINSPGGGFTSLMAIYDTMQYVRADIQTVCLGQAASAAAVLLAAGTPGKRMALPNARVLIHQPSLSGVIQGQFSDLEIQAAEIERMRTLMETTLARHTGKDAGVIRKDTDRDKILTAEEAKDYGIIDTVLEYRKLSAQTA

SMILES	IC50 [µM]
COc1ncc(NCc2cc(C#N)cs2)cc1C(N)=O	> 100
Cc1nc(-c2cc(C(=O)N3CCCN(C)CC3)c3ccccn23)cn1C	> 100
Cn1ncc(N2CCOC(CCNC(=O)CO)C2)cc1=O (stereo unspecified)	> 100
CCc1nnc(CNC2CCCN(Cc3noc(C4CC4)n3)C2)o1 (stereo unspecified)	> 100
CN(CCN1CCCCC1=O)Cc1cc2cc3c(cc2[nH]c1=O)OCO3	> 100
CC(C)n1cnc(-c2nc(C(=O)N3CCCC3)c3ccccn23)c1	> 100
CN(C)S(=O)(=O)N1CC[C@]2(O)CCN(c3cc(C#N)ccn3)C[C@@H]2C1	> 100
CCc1ncc2c(n1)CN(CC(=O)Nc1nncs1)CC2	> 100
N#Cc1cccc(OCCN2CCNC(=O)C2c2cccs2)c1 (stereo unspecified)	> 100
CCOCCCNCc1cc2c(C)cc(C)cc2n2c(=O)n(C)nc12	> 100
Cc1csc2ncc(-c3ccnc(N4CCN(C)CC4)n3)c(=O)n12	> 100
Cc1ccc2[nH]c(=O)cc(C(=O)N[C@@H]3C[C@@H](CO)N(C)C3)c2c1	> 100
Cc1cnn(CC2CN(Cc3csc(C4CCCC4)n3)CCO2)c1 (stereo unspecified)	> 100
COCc1ccccc1CNC(=O)CNc1ccccc1C(C)=O	> 100
CSc1nccn1-c1ccc(C(=O)NCC2CC2)cc1	> 100
CC1Cn2c(nc3c2c(=O)[nH]c(=O)n3C)O1 (stereo unspecified)	> 100
CN1CCCN(C(=O)c2cc(-c3cc[nH]n3)n3ccccc23)CC1	> 100
CCC[C@H]1CN(c2cncc(C(=O)N3CCCCC3)n2)C[C@@H]1N(C)C	> 100
CCc1nccn1CCC(=O)N1CCCC1c1cncc(NC)n1 (stereo unspecified)	> 100
CN(C)c1ncc(C2Nc3ccccc3C3=NCCCN32)cn1 (stereo unspecified)	> 100
CC(=O)N1CCC(c2cc(C(F)(F)F)n3ccnc3n2)CC1	> 100
Nc1nccc(-c2cccc3ccnn23)n1	> 100
NC(=O)CCC1CCCN(c2ccc3ccc(F)cc3n2)C1 (stereo unspecified)	> 100
O=C(NCC1CCCOC1)c1ccc(-c2cccs2)[nH]c1=O (stereo unspecified)	> 100
COc1ccc(C(=O)N(C)Cc2nnc3ccccn23)c(OC)c1OC	> 100

SMILES	IC50 [µM]
Cc1cccc(-c2cc(-c3c(C)nn(CCO)c3C)c(C#N)c(N)n2)c1	> 100
CSc1ccc(CNc2n[nH]c(C)n2)cc1	> 100
CS(=O)(=O)CCNC(=O)c1ccc(-c2ccco2)[nH]c1=O	> 100
CC1CCN(C(=O)C2CCN(c3ccc(Cl)cc3C#N)CC2)CC1	> 100
CCC(=O)NC1CCCN(c2cncc(OCc3ccccc3)n2)C1 (stereo unspecified)	> 100
Nc1nc(CN2CCOC(Cn3cccn3)C2)nc2ccccc12 (stereo unspecified)	> 100
CCNC(=O)[C@@H]1C[C@H](NC(=O)c2cc(=O)[nH]c3ccc(C)cc23)CN1C	> 100
CC(C)=CCCC1(C)C=Cc2c(cc(C)n(CCC(=O)O)c2=O)O1 (stereo unspecified)	> 100
Cc1ncc(CN2CCc3nc4cc(C(C)(C)C)nn4c(O)c3C2)n1C	> 100
CCc1ccc(S(=O)(=O)N2CCCC3(CCCN3S(C)(=O)=O)C2)cc1 (stereo unspecified)	> 100
CCN(CC)c1nc2sc(C(=O)N3CCNC(=O)C3)cc2s1	> 100
CN(C)C(=O)c1nc(-c2ccc(S(C)(=O)=O)cc2)c2ccccn12	> 100
COc1cccc(-c2ccnc3nc(N4CCCCC4)[nH]c(=O)c23)c1	> 100
O=C(NC1CCC1)c1c2c(N3CCCC3)ncnc2n2ccccc12	> 100
OCCNc1nc(NCc2cccnc2)nc2nccnc12	> 100
CCc1nc(C2CCCN2C(=O)CCCn2cncn2)no1 (stereo unspecified)	> 100
CC(C)c1nc2c(n1C)CCN(CC(=O)Nc1cccnc1)C2	> 100
N#Cc1ccc(OC[C@]23COC[C@H]2CN(Cc2ccoc2)C3)nc1	> 100
Cc1noc(C2CCN(C(=O)CCc3nccs3)CC2)n1	> 100
Cn1cnc2c1CCN(Cc1csc(-c3ccsc3)n1)C2	> 100
CC(C)=CCN1CCc2onc(-c3ccc(F)c(F)c3)c2C1	> 100
CC(C)Cc1cc(-c2cc(-c3ccc[nH]3)nc(N)c2C#N)n[nH]1	> 100
Cc1nc(-c2nc(C(=O)N3CCOCC3)c3ccccn23)cn1C(C)C	> 100
CN(C)C(=O)N1CCN(C(=O)c2ccn3cncc3c2)CC1	> 100
COc1cccc(-n2nnc(C(=O)N3CCN(C)CC3C)c2C)c1 (stereo unspecified)	> 100

SMILES	IC50 [µM]
Cc1ccnc(NCCCN2CCc3ccccc32)n1	> 100
COc1cccc2ccc(N3CCC(O)(C(=O)O)CC3)nc12	> 100
CN(C)c1ncc(C2Nc3cc(Cl)ccc3C3=NCCCN32)cn1 (stereo unspecified)	> 100
CC(c1ccccn1)N(C)Cc1cc2cc3c(cc2[nH]c1=O)OCO3 (stereo unspecified)	> 100
Cn1ccc2c(-c3cc(N4CCOCC4)ncn3)ccnc21	> 100
N#Cc1ccc(F)c(CN2CCNC(=O)C2c2cccs2)c1 (stereo unspecified)	> 100
Cc1nn(CCNc2ncnc3c2NC(=O)CN3)c(C)c1Cl	> 100
CC1CN(C(=O)CN(Cc2ccccc2)C2CC2)CCO1 (stereo unspecified)	> 100
Cc1sc2c(C3CCCNC3)nc(Nc3cccc(F)c3)n2c1C (stereo unspecified)	> 100
CN1CCc2c(C#N)c(NCc3ccncc3)n3cnnc3c2C1	> 100
COc1ncc(NCc2ccsc2)cc1C(N)=O	> 100
Cn1c(N)c2c(=O)n(C)c(-c3ccc(Cl)cc3Cl)cc2c(C#N)c1=O	> 100
CCOC(=O)C1(Cc2ccc(Cl)cc2)CCN(Cc2ncc[nH]2)CC1	> 100
COc1ccc2cc(CN(C)CCc3cn[nH]c3)c(=O)[nH]c2c1	> 100
O=C(O)C1CN(c2cncc(Cc3ccccc3)n2)C1	> 100
Cc1ccc2cc(CN(C)Cc3ccncn3)c(=O)[nH]c2c1	> 100
O=C(NCCCn1cccn1)NCC(c1ccco1)N1CCCC1 (stereo unspecified)	> 100
COCC(=O)N1CCC(c2cc3nc(C)cc(C(F)(F)F)n3n2)CC1	> 100
CC(c1ccco1)N(C)Cc1cc2cc3c(cc2[nH]c1=O)OCO3 (stereo unspecified)	> 100
CCc1ncc2c(n1)CN(C(C)C(=O)Nc1ccc(Cl)cn1)CC2 (stereo unspecified)	> 100
Cc1cccc2c1NC1(CCOCC1)NC2=O	> 100
Cc1ccc(C#N)c(N2CCC3(CCC(=O)N(CC(N)=O)C3)CC2)n1	> 100
CC(C)(C)c1ccc(OCC(=O)O)c(CN2C[C@H]3C[C@H](O)C[C@H]3C2)c1	> 100
Cc1nc(-c2nc(C(=O)N(C)C)c3ccccn23)cn1C(C)C	> 100
CC1CN(CC(=O)NCc2ccccn2)CCN1Cc1nccn1C (stereo unspecified)	> 100

SMILES	IC50 [µM]
COc1ccc(C2Nc3ccccc3C3=NCCCN32)cc1OC (stereo unspecified)	> 100
NC(=O)CN1CCC(c2cc(C(F)(F)F)n3ccnc3n2)CC1	> 100
N#Cc1c(N)nc2c(c1C1CCOC1)CCc1cc(O)ccc1-2 (stereo unspecified)	> 100
Cn1ccc2c(-c3cc(N)nc(N4CCOCC4)n3)ccnc21	> 100
CNc1cnc(CC2COCCN(CCOc3ccccc3)C2)cn1 (stereo unspecified)	> 100
CN(Cc1ccsc1)C(=O)Nc1ccc(N2CCCC2)nc1	> 100
Cc1nc2oc(C(=O)N3CCOCC3)c(N)c2c2c1CCCC2	> 100
COc1cc(CN2CCCCCC2c2cccs2)cc(OC)c1O (stereo unspecified)	16.8
CNC(=O)c1cc2c(nc1NCC1CC1)CCN(c1ccncn1)CC2	> 100
Cn1ccc(-c2cc(C(=O)N3CCCCC3)c3ccccn23)n1	> 100
O=C1CNc2ncnc(NCc3cccs3)c2N1	> 100
CN(C)c1nc2c(c(NCc3nnc4n3CCCCC4)n1)CCNC2	> 100
COCC(C)N1CCc2onc(-c3ccc(F)c(F)c3)c2C1 (stereo unspecified)	> 100
Cn1ccnc1CN1CCN(CC(O)c2cc(F)ccc2F)CC1 (stereo unspecified)	> 100
O=C1C[C@H]2CC[C@@H](CN1)N2c1cc(-c2ccccc2F)nc2ccnn12	> 100
CNC(=O)c1cc2c(nc1NC(C)C)CCN(C(=O)NC(C)C)CC2	> 100
CN1C(=O)c2cccc(NC(=O)c3ccc4c(c3)OCCO4)c2C1=O	> 100
CCCn1[nH]cc/c1=N\C(=O)CN1CCn2c(nnc2C2CC2)C1	> 100
CNc1cnc(CC2COCCN(Cc3cccc(C)n3)C2)cn1 (stereo unspecified)	> 100
CC(C)c1ncc2c(n1)CN(CC(=O)Nc1ccc(Cl)cn1)CC2	> 100
Cc1cccc(NC(=O)c2ccc(OCc3nnnn3C)cc2)n1	> 100
OCCNc1nc(NCCc2ccccc2)nc2nccnc12	> 100
O=C1CC(Nc2ccc3nccnc3n2)CN1c1ccccc1 (stereo unspecified)	> 100
CCN(C(=O)CNc1cc(C)c(F)cc1C(N)=O)C1CC1	> 100
Cc1cc(C)n(-c2cncc(NCCNC(=O)C3CCCC3)n2)n1	> 100

SMILES	IC50 [µM]
O=C(NCCC(=O)N1CCCc2ccccc21)c1ccc(F)cc1F	> 100
Cc1nc(NCC2CC2)nc2c1COCC21CCN(C(=O)C(C)(C)C)C1 (stereo unspecified)	> 100
Cc1ccc2nc(CNc3ccccc3C(=O)NC3CC3)cn2c1	> 100
O=C1CCc2cc(NC(=O)C3CCCN3c3nccs3)ccc2N1 (stereo unspecified)	> 100
CNCCN1C(=O)CC[C@H]2CN(c3cnc4ccccc4n3)CC[C@H]21	> 100
CCCn1[nH]cc/c1=N\C(=O)CN1CCc2c(nc(C3CC3)n2C)C1	> 100
c1cnc2nc(N3CCCC3c3nnc4n3CCCCC4)ccc2n1 (stereo unspecified)	> 100
O=C(c1cc(-c2cccnc2)[nH]n1)N1CCCC(c2cnccn2)C1 (stereo unspecified)	> 100
Cc1ncc2c(n1)CN(CC(=O)Nc1ccc(Cl)cn1)CC2	> 100
CC(C)c1nnc(NC(=O)CN2C(=O)c3ccccc3NC2C(C)C)s1 (stereo unspecified)	> 100
COc1ccc(-c2cnc(N(C)C)nc2C2CNCCO2)cc1 (stereo unspecified)	> 100
COc1ccccc1-c1nc(C(=O)N2CCOCC2)n2ccncc12	> 100
CC(O)c1cn(CC2CCN(C(=O)c3cscn3)CC2)nn1 (stereo unspecified)	84.4
Cn1c(Cn2ccnc2)nnc1C1CCN(C(=O)c2cccnc2)CC1	> 100
CC(C)Nc1oc(-c2ccc(S(=O)(=O)N(C)C)o2)nc1C#N	> 100
Cc1noc2ncc(C(=O)NCC3CCS(=O)(=O)C3)cc12 (stereo unspecified)	> 100
COc1ccc(-c2ccnc3nc(N4CCCC4)[nH]c(=O)c23)cc1OC	> 100
Cc1n[nH]c(C)c1-c1cc(-c2cc[nH]c2)nc(N)c1C#N	> 100
CCNCCOc1ccc(-c2cc(N)nc3[nH]ccc23)cc1	> 100
Cc1cccc2c1OCCC2NCc1c(C)nn(C)c1N(C)C (stereo unspecified)	> 100
COc1ccc(-c2nc(CN3CCc4cncnc4C3)no2)cc1	> 100
